System: U87MG cells
Experiment: Cytotoxic experiment, cell viability with tetrazolium salt derivatives
Assay type: cell-based
Conditions: 72 hours, free drug 0.01-100 μM, FIG. 5
Protocol: An experiment is performed to identify cytotoxicity of the manufactured microbubble drug delivery system and the drug delivery system loading the drugs. The experiment is performed after an experimental group manufactured by using the method in Example 1-2 (microbubble drug delivery system loading paclitaxel PTX@MB) and a control group (microbubble without loaded drugs MB) are deaerated to burst bubbles. Each solution is added to U87MG cells to respectively set final concentrations to 10%, 1%, 0.1%, 0.01%, and 0.001% and final concentrations of free paclitaxel are respectively set to 100 μM, 10 μM, 1 μM, 0.1 μM, and 0.01 μM. 5000 cells are grown in each well and cells are cultured for 72 hours. Then, a solution containing a cell culture fluid and tetrazolium salt derivatives are added to measure cell viability and in-vitro cytotoxicity of each material is identified.

CC(=O)O[C@H]1C(=O)[C@@]2(C)[C@H]([C@H](OC(=O)c3ccccc3)[C@]3(O)C[C@H](OC(=O)[C@H](O)[C@@H](NC(=O)c4ccccc4)c4ccccc4)C(C)=C1C3(C)C)[C@]1(OC(C)=O)CO[C@@H]1C[C@@H]2O [free paclitaxel, Paclitaxel]
concentration at which cytotoxicity is identified: above 1 μM
